Measurements as given in paper PMC10994559 (PLOS Neglected Tropical Diseases, 2024).
Several values for one entry are separate records, joined by “and”; a condition that tells them apart may be missing. Identical values can stand only once. Like-named read-outs stand apart in the source and are kept apart here.

What was measured:
[1] = tested on: T. brucei brucei BSF; assay: T. brucei BSF viability, resazurin reduction; type: cell-based, Trypanosoma brucei brucei; conditions: for EC50: ± SD (Table 2) / ± SE (S3 Table); for viability at 25 µM: read-out: viability, T.brucei (25 µM)
[2] = tested on: T. brucei brucei BSF; set-up: method as in PMID 29425238; conditions: read-out: reported EC50 T. brucei; cited from earlier work
[3] = tested on: T. cruzi trypomastigotes; assay: T. cruzi viability, resazurin reduction; type: cell-based, Trypanosoma cruzi; conditions: Trypanosoma cruzi; for viability at 2.5 µM: read-out: viability, T.cruzi (2.5 µM); for viability at 25 µM: read-out: viability, T.cruzi (25 µM)
Method in brief: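 Y-strain trypomastigotes kept in supplemented liver infusion tryptose broth with 10% FCS, pH 7.2, at 28°C. Viability by fluorescence resazurin reduction; single-point screen at 2.5 μM, then 18-concentration dose response. Amphotericin B as control drug.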

[4] = tested on: L. major axenic amastigotes; assay: L. major axenic amastigote viability, resazurin reduction; conditions: Leishmania major; for viability at 2.5 µM: read-out: viability, L.major amastigote(2.5 µM)
Method in brief: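 Axenic L. major LV561 amastigotes were grown in Grace medium with 20% FCS, pH 5.4, at 33°C and seeded at 0.5x10^5 cells/well with compounds for 72 h. Resazurin was then added for 6 h and fluorescence read at ex 550/em 590 nm; hits were retested at 2.5 μM.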

[5] = tested on: L. infantum promastigotes; assay: L. infantum promastigote viability, resazurin reduction; type: cell-based, Leishmania infantum; conditions: Leishmania infantum, sheet LTC_compound_viability, value ± spread; for viability at 2.5 µM: read-out: viability, L. infantum promastigote (2.5 µM); for viability at 25 µM: read-out: viability, L. infantum promastigote (25 µM)
Source text: (§1) The infectivity of the parasites was boosted by passaging in Balb/c mice and culturing the infected lymph nodes after six weeks. L. infantum (MHOM / BR / 76 / M4192) parasite was passaged in the same media formulation with 0.5% urine.

[6] = tested on: human hepatocyte carcinoma HepG2 cells; assay: Cytotoxicity assay HepG2, resazurin reduction; type: cell-based; conditions: cytotoxicity, 72 h, read-out: EC50 (CT50) HepG2
Method: Mammalian cell lines (J774 and HepG2) were passaged in RPMI media supplemented with MEM, Pen-Strep (1%) and 10% FCS. Cultures were kept at 37°C incubator with 5% CO2 in filter-cap flasks.
Murine macrophage cells (J774) and human hepatocyte carcinoma HepG2 cells were seeded at 0.5x10^5 cell/well in 384 well plates in triplicate, exposed to serial dilution of compounds, dispensed using an Echo 650 acoustic dispenser (Labcyte). After incubation for 72 h at 37°C, 5% CO2, cell viability was determined using fluorescence resazurin reduction assay (λEx: 550 nm; λEm: 590 nm).

[7] = tested on: L. major promastigotes; assay: L. major promastigote viability, resazurin reduction; type: cell-based, Leishmania major; conditions: Leishmania major, read-out: viability, L.major promastigote (25 µM)
Source text: as §1

[8] = Cytotoxicity assay J774, resazurin reduction; type: cell-based, murine; conditions: mouse, J774 macrophage cells; for viability at 72 h, 2.5 µM: read-out: viability, J774 (2.5 µM); for viability at 72 h, 25 µM: read-out: viability, J774 (25 µM)
Method in brief: (§2)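 J774 and HepG2 cells were seeded at 0.5x10^5 cell/well and exposed to serially diluted compounds for 72 h at 37°C, 5% CO2. Viability was read by fluorescence resazurin reduction (λEx 550 nm, λEm 590 nm).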

[9] = tested on: Murine macrophage cells (J774); assay: Cytotoxicity assay J774, resazurin reduction; type: cell-based; conditions: cytotoxicity, 72 h
Method in brief: as §2

[10] = tested on: E. histolytica; assay: E. histolytica viability, ATP luminescence (Cell titer glo); type: cell-based, Entamoeba histolytica; conditions: Entamoeba histolytica; for viability at 2.5 µM: read-out: viability, E.histolytica (2.5 µM); for viability at 25 µM: read-out: viability, E.histolytica (25 µM)
Method in brief: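 E. histolytica strain B2-5 at 2.5x10^4 cells/ml was exposed to compound for 48 h at 37 °C under anaerobic conditions, with viability read as ATP luminescence (CellTiter-Glo). The primary screen used 25 μM in triplicate, and follow-up potency runs used 9–16-point ranges spanning 0.01–100 μM.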

[11] = tested on: intracellular L. infantum amastigotes; assay: Parasite rescue assay (intramacrophage, J774 infected with L. infantum); type: cell-based, Leishmania infantum; conditions: for viability at 25 µM: J774, rescue assay in J774, 25 µM, read-out: Residual viability, intracellular L. infantum amastigote (25 µM)
[12] = tested on: intracellular L. infantum amastigotes; assay: Parasite rescue assay (intramacrophage, J774 infected with L. infantum); type: cell-based, Leishmania infantum; conditions: J774, 25 µM; intracellular amastigote; read-out: viability, intracellular L. major amastigote (25 µM)
[13] = Trypanosoma brucei, 2.5 µM, read-out: viability, T.brucei (2.5 µM)
[14] = Trypanosoma brucei, 72 h, read-out: Residual viability, T.brucei (2.5 µM), BSF, 2.5 µM, 72 h
[15] = Trypanosoma brucei, read-out: EC50 T. brucei BSF, dose response, triplicate
[16] = read-out: viability, L.major amastigote (25 µM)
[17] = Leishmania infantum, J774, read-out: EC50 L. infantum rescue assay, intramacrophage (J774), 18 concentrations
[18] = read-out: EC50 L. infantum rescue assay, intramacrophage (J774), 18 concentrations

Structure (SMILES)	viability at 2.5 µM [1, 13] [%]	viability at 25 µM ([1]; Trypanosoma brucei, 25 µM) [%]	viability at 2.5 µM [3] [%]	viability at 25 µM [3] [%]	viability at 25 µM [4, 16] [%]	viability at 2.5 µM [4] [%]	viability at 2.5 µM [5] [%]	viability at 25 µM [5] [%]	viability at 25 µM ([7]; 72 h) [%]	viability at 25 µM ([7]; 25 µM) [%]	viability at 72 h, 2.5 µM [8] [%]	viability at 72 h, 25 µM [8] [%]	viability at 2.5 µM [10] [%]	viability at 25 µM [10] [%]	melting point [°C]	viability at 25 µM [12] [%]	also measured
NCc1ccc(Oc2ccc3c(c2)COB3O)cc1 [AN3057, reference compound]	–	–	–	–	–	–	–	–	–	–	–	–	–	–	–	–	Residual viability, T.brucei (2.5 µM) ([1]; BSF, 2.5 µM, 72 h): 0.3%; Residual viability, T.brucei (2.5 µM) ([1]; BSF, 2.5 µM, 72 h, listed as An3057, 2.5 µM): 0.32±0.58%; Residual viability, T.brucei (25 µM) ([1]; BSF, 25 µM, 72 h): -2.85±1.48%; EC50 ([1]; dose response, triplicate, read-out: EC50 T. brucei BSF): 0.005 ± 0.002 µM; EC50 [2]: 0.0052 µM
CC(C)(C)OC(=O)NC(Cc1ccccc1)C(O)CNc1ccc(OC(F)(F)F)cc1 (stereo not drawn) [LTC-1023]	-1.06 ± 0.31	1.99 ± 1	58.51 ± 0.23	23.2 ± 1.67	18 ± 1.91	68.4 ± 1.28	67.5 ± 2.44	1.5 ± 0.05	88.6 ± 3.09	0.83 ± 1.76	96.7 ± 4.49	75.7 ± 4.65	48.5 ± 4.19	59.6 ± 14.7	–	–	viability at 2.5 µM [1, 14]: < 10%; EC50 [1, 15]: 1.1 ± 1.7 µM; EC50 ([6]; Homo sapiens, HepG2, 72 h): 16.7 ± 1.9 µM; EC50 [6]: 31.6 µM and 16.7 µM; EC50 ([9]; Mus musculus, J774, 72 h): > 25 µM; EC50 [9]: > 16 µM; EC50 [11, 17]: 4.1 ± 1.8 µM; viability at 25 µM ([11]; Leishmania infantum): 4.9%; EC50 [11, 18]: 4.08 ± 1.8 µM
CC(C)(C)OC(=O)NC(Cc1ccccc1)C(O)CNc1cccc(C(F)(F)F)c1 (stereo not drawn) [LTC-1025]	78 ± 4.59	2.26 ± 1.07	63.1 ± 2.47	23.4 ± 2.5	21.2 ± 2.05	77 ± 1.6	55.3 ± 1.69	0.7 ± 0.03	88.3 ± 1.36	0.16 ± 0.69	75.1 ± 3.41	98.5 ± 8.61	45.9 ± 11.6	55.3 ± 4.32	–	–	EC50 [1, 15]: 3.7 ± 1.7 µM; EC50 ([6]; Homo sapiens, HepG2, 72 h): 31.6 ± 1.7 µM; EC50 [6]: 33.8 µM and 31.6 µM; EC50 ([9]; Mus musculus, J774, 72 h): > 25 µM; EC50 [9]: > 16 µM; EC50 [11, 17]: 2.9 ± 2.9 µM; viability at 25 µM ([11]; Leishmania infantum): 2.8%; EC50 [11, 18]: 2.8 µM and 2.84 µM
N[C@@H](Cc1ccccc1)[C@@H](O)CNc1ccc(F)cc1F [LTC-1032, (2S,3S)-3-Amino-1-((2,4-difluorophenyl)amino)-4-phenylbutan-2-ol]	-0.94 ± 0.33	2.18 ± 0.88	59.8 ± 1.24	29 ± 1.22	76 ± 0.96	–	84.1 ± 3.01	9.17 ± 0.49	86.3 ± 2.23	0.57 ± 0.34	96.3 ± 3.07	96.6 ± 11.9	56.3 ± 3.32	118 ± 17.6	89 to 91	73 ± 5.58	viability at 2.5 µM [1, 14]: < 10%
CC(C)(C)c1ccc(NC[C@H](O)[C@@H](N)Cc2ccccc2)cc1 [LTC-1034, (2S,3S)-3-Amino-1-((4-(tert-butyl)phenyl)amino)-4-phenylbutan-2-ol]	72.8 ± 4.34	2.34 ± 1.3	60.1 ± 2.2	30.8 ± 2.5	15.2 ± 1.86	73.9 ± 0.76	68 ± 22.2	3.46 ± 0.12	79.3 ± 17.2	6.26 ± 1.21	96.6 ± 5.47	64.1 ± 4.5	52 ± 6.13	123 ± 5.09	74 to 76	105 ± 5.69	viability at 25 µM ([4]; 72 h, read-out: Residual viability, L.major amastigote (25 µM)): 15.2%
Cc1cccc(C)c1NC[C@H](O)[C@@H](N)Cc1ccccc1 [LTC-1041, (2S,3S)-3-Amino-1-((2,6-dimethylphenyl)amino)-4-phenylbutan-2-ol]	70.5 ± 3.15	2.06 ± 1.4	60 ± 3.23	57.2 ± 4.4	73.8 ± 2.47	–	47.1 ± 4.67	20.3 ± 4.1	88 ± 2.36	15.5 ± 3.29	100 ± 2.23	85.1 ± 13.9	85.2 ± 16.3	128 ± 30.1	63 to 65	71.6 ± 22.8	–
COc1ccc(NC[C@H](O)[C@@H](N)Cc2ccccc2)cc1 [LTC-1042, (2S,3S)-3-Amino-1-((4-methoxyphenyl)amino)-4-phenylbutan-2-ol]	77.3 ± 2.39	2.38 ± 1.15	61.9 ± 1.61	18.6 ± 2.9	39 ± 23.4	–	81.7 ± 3.08	1.85 ± 0.19	86.4 ± 2.46	0.03 ± 0.1	93.9 ± 4.73	97.8 ± 15.5	106 ± 18	125 ± 46.5	78 to 80	67.6 ± 19.8	–
Cc1ccc(NC[C@H](O)[C@@H](N)Cc2ccccc2)cc1 [LTC-1043, (2S,3S)-3-Amino-4-phenyl-1-(p-tolylamino)butan-2-ol]	80.6 ± 2.56	2.22 ± 1.09	61.9 ± 0.89	31.9 ± 1.78	22.1 ± 2.55	76.2 ± 2.46	71.6 ± 5.44	16.9 ± 2.12	83.4 ± 5.16	22.1 ± 5	95.7 ± 7.77	93.5 ± 8.83	74.3 ± 21.6	97.3 ± 19.4	57 to 59	63.4 ± 7.61	–
